Experimental data taken from patent US9023789B2, “Amylin analogs and pharmaceutical compositions thereof” (Novo Nordisk A/S, priority 2012, dated 2015).
Converted amounts (≈) assume the structure as drawn. Where two headings read alike, the source gives them in different places.

Key:
[1] = target: T1, rat calcitonin receptor (Rattus norvegicus, UniProt P32214); assay: ASSAY (VIII) binding to the rat calcitonin receptor; conditions: Table 7, read-out: rCTR bind IC50
T1 construct: expressed in transfected cells; host or cells: BHK tk'ts 13 (transient, FuGENE 6), membranes
T1 sequence (P32214 25-479 isoform P32214-2 limits assumed): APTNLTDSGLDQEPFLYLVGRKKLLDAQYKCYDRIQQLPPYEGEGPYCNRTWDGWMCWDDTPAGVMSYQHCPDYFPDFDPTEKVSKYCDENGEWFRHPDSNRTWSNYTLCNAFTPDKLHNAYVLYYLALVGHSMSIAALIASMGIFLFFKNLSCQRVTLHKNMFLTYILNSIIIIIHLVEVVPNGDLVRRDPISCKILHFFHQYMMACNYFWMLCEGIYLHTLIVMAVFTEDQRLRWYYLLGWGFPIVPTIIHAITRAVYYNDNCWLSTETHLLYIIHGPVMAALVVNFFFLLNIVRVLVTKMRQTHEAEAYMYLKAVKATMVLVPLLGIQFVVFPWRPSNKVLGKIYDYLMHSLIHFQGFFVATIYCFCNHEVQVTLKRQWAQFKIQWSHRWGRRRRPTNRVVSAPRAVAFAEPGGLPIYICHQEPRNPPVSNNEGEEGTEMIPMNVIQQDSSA
How it was run: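 BHK tk′ts 13 cells, transient rat calcitonin receptor transfection; DMEM + 10% FBS; harvest ~48 h post-transfection; membrane prep.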

[2] = target: T2, human amylin receptor (membranes from Amylin 3(a)/CRE-luc cells) (Homo sapiens, UniProt O60896+P30988); assay: ASSAY (V) binding to the human amylin receptor (SPA, 125I-rat amylin);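 also: competition binding of cell membranes (35 ng/µL) mixed with SPA beads in 384-well plates at 40 µL total volume, read by scintillation counting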
T2 construct: expressed in transfected cells
T2 sequence (P30988 25-474): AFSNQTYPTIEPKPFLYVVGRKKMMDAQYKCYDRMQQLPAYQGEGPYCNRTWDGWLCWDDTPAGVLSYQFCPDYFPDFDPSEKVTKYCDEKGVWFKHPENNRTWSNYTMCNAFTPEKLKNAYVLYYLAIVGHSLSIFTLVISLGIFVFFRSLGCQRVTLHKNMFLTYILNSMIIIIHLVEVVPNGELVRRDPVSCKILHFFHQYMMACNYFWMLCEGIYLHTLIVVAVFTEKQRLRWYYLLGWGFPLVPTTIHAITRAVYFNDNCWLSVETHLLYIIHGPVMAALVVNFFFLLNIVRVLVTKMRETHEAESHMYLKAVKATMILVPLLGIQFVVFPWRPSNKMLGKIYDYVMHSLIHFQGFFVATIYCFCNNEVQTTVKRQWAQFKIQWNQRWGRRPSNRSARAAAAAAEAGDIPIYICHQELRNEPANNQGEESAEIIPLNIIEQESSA
T2 sequence (O60896 24-148 partner): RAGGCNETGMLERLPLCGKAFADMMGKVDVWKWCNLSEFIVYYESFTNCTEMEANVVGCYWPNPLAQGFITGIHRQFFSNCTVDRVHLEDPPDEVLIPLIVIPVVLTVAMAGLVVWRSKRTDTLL

[3] = ASSAY (IV) determination of solubility; type: physicochemical
How it was run: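 Solubility measured by UPLC of supernatant after centrifugation, following 18 h at room temperature. Peptide ([…] in water) was diluted 1:1 into 100 mM glycylglycine (pH 3.0, 4.0, 5.0) or bistrispropane (pH 6.0-8.0).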

[4] = target: T3, rat amylin receptor (rat calcitonin receptor + rat RAMP 3) (Rattus norvegicus, UniProt P32214+Q9JJ73); assay: ASSAY (VI) binding to the rat amylin receptor; conditions: for IC50: binding to rat amylin receptor, read-out: rAmylin-R bind IC50
T3 construct: expressed in transfected cells; host or cells: BHK tk'ts 13 (transient, FuGENE 6), membranes
T3 sequence (P32214 25-479 isoform P32214-2 limits assumed): T1 sequence (P32214 25-479 isoform P32214-2 limits assumed)
T3 sequence (Q9JJ73 23-147 partner): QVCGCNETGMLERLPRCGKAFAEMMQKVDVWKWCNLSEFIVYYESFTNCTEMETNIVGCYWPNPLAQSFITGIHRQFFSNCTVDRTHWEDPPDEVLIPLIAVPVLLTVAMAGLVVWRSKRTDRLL
How it was run: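 The cell-membrane assay assessed binding at the rat amylin receptor. BHK tk′ts 13 cells were transfected transiently with rat calcitonin receptor, with FuGENE® 6 (Roche) as the transfection reagent, used per the manufacturer's recommendations. Approximately 48 hours after transfection the cells were harvested, and membranes were prepared for measuring binding.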

[5] = Table 5, selectivity, hCTR bind IC50 / hAmylin-R bind IC50
[6] = Table 5a, selectivity, hCTR bind IC50 / hAmylin-R bind IC50
[7] = Table 5b, selectivity, hCTR bind IC50 / hAmylin-R bind IC50
[8] = Table 5c, selectivity, hCTR bind IC50 / hAmylin-R bind IC50
[9] = Table 7, human binding selectivity, included for comparison
[10] = Table 7a (preferred compounds), human binding selectivity, included for comparison
[11] = ratio of human calcitonin receptor binding IC50 to human amylin receptor binding IC50
[12] = bistrispropane buffer, pH 6.5, read-out: Solubility pH 6.5 Concentration
[13] = bistrispropane buffer, pH 7.5, read-out: Solubility pH 7.5 Concentration
[14] = bistrispropane buffer, pH 6.0, read-out: Solubility pH 6.0 Concentration
[15] = bistrispropane buffer, pH 7.0, read-out: Solubility pH 7.0 Concentration
[16] = bistrispropane buffer, pH 8.0, read-out: Solubility pH 8.0 Concentration
[17] = glycylglycine buffer, pH 3.0, read-out: Solubility pH 3.0 Concentration
[18] = glycylglycine buffer, pH 4.0, read-out: Solubility pH 4.0 Concentration
[19] = glycylglycine buffer, pH 5.0, read-out: Solubility pH 5.0 Concentration
[20] = Table 7, rat binding selectivity, rCTR IC50 / rAmylin-R IC50
[21] = Table 7a (preferred compounds), rat binding selectivity, rCTR IC50 / rAmylin-R IC50
[22] = ratio of rCTR bind IC50 to rAmylin-R bind IC50

IC50 [1]	Ratio hCT/hAmylin binding [2, 5]	Ratio hCT/hAmylin binding [2, 6]	Ratio hCT/hAmylin binding [2, 7]	Ratio hCT/hAmylin binding [2, 8]	Ratio hCT/hAmylin binding [2, 9]	Ratio hCT/hAmylin binding [2, 10]	Ratio hCT/hAmylin binding [2, 11]	solubility at 18 h [3, 12]	solubility at 18 h [3, 13]	solubility at 18 h [3, 14]	solubility at 18 h [3, 15]	solubility at 18 h [3, 16]	solubility at 18 h [3, 17]	solubility at 18 h [3, 18]	solubility at 18 h [3, 19]	IC50 ([4]; Table 7)	Ratio rCT/rAmylin binding [4, 20]	Ratio rCT/rAmylin binding [4, 21]	Ratio rCT/rAmylin binding [4, 22]	SMILES
159 nM	81.6	81.6	81.6	81.6	81.6	81.6	81.6	≥ 200 µM	106 µM (≈ 483 µg/mL)	≥ 200 µM	155 µM (≈ 706 µg/mL)	110 µM (≈ 501 µg/mL)	≥ 200 µM	≥ 200 µM	≥ 200 µM	0.335 nM	476.7	476.7	476.7	CC[C@H](C)[C@H](NC(=O)[C@H](C)NC(=O)CNC(=O)[C@H](Cc1ccccc1)NC(=O)[C@H](CC(N)=O)NC(=O)[C@@H]1CCCN1C(=O)[C@H](CO)NC(=O)[C@H](CO)NC(=O)[C@H](Cc1c[nH]cn1)NC(=O)[C@H](CCCNC(=N)N)NC(=O)[C@H](CC(C)C)NC(=O)[C@H](Cc1ccccc1)NC(=O)[C@H](CC(=O)O)NC(=O)[C@H](C)NC(=O)[C@H](CC(C)C)NC(=O)[C@H](CCCNC(=N)N)NC(=O)[C@H](CCC(N)=O)NC(=O)[C@@H](NC(=O)[C@H](C)NC(=O)[C@@H]1CSSC[C@H](NC(=O)[C@@H](N)CCCCNC(=O)CC[C@H](NC(=O)CC[C@H](NC(=O)CCCCCCCCCCCCCCCCCCC(=O)O)C(=O)O)C(=O)O)C(=O)N[C@@H](CC(N)=O)C(=O)N[C@@H]([C@@H](C)O)C(=O)N[C@@H](C)C(=O)N[C@@H]([C@@H](C)O)C(=O)N1)[C@@H](C)O)C(=O)N1CCC[C@H]1C(=O)N[C@@H](CO)C(=O)N[C@@H](CO)C(=O)N[C@H](C(=O)N[C@@H](CC(N)=O)C(=O)N[C@H](C(=O)NCC(=O)N[C@@H](CO)C(=O)N[C@@H](CCCNC(=N)N)C(=O)N[C@H](C(=O)N[C@@H](Cc1ccc(O)cc1)C(N)=O)[C@@H](C)O)C(C)C)[C@@H](C)O [Example 52, N-ε-1-{(S)-4-carboxy-4-[(S)-4-carboxy-4-(19-carboxynonadecanoylamino)butyrylamino]butyryl}-[Asp14,Arg17,Pro21,Pro27,Arg35]-human amylin]
131 nM	56.5	56.5	56.5	56.5	56.5	56.5	56.5	≥ 200 µM	≥ 200 µM	≥ 200 µM	≥ 200 µM	≥ 200 µM	≥ 200 µM	≥ 200 µM	≥ 200 µM	3.48 nM	37.7	37.7	37.7	CC[C@H](C)[C@H](NC(=O)[C@H](C)NC(=O)CNC(=O)[C@H](Cc1ccccc1)NC(=O)[C@H](CC(N)=O)NC(=O)[C@@H]1CCCN1C(=O)[C@H](CO)NC(=O)[C@H](CO)NC(=O)[C@H](Cc1c[nH]cn1)NC(=O)[C@H](CCCNC(=N)N)NC(=O)[C@H](CC(C)C)NC(=O)[C@H](Cc1ccccc1)NC(=O)[C@H](CC(N)=O)NC(=O)[C@H](C)NC(=O)[C@H](CC(C)C)NC(=O)[C@H](CCCNC(=N)N)NC(=O)[C@H](CCC(N)=O)NC(=O)[C@@H](NC(=O)[C@H](C)NC(=O)[C@@H]1CSSC[C@H](NC(=O)[C@@H](N)CCCCNC(=O)COCCOCCNC(=O)COCCOCCNC(=O)CC[C@H](NC(=O)CCCCCCCCCCCCCCCCCCC(=O)O)C(=O)O)C(=O)N[C@@H](CC(N)=O)C(=O)N[C@@H]([C@@H](C)O)C(=O)N[C@@H](C)C(=O)N[C@@H]([C@@H](C)O)C(=O)N1)[C@@H](C)O)C(=O)N1CCC[C@H]1C(=O)N[C@@H](CO)C(=O)N[C@@H](CO)C(=O)N[C@H](C(=O)N[C@@H](CC(N)=O)C(=O)N[C@H](C(=O)NCC(=O)N[C@@H](CO)C(=O)N[C@@H](CCC(=O)O)C(=O)N[C@H](C(=O)N[C@@H](Cc1ccc(O)cc1)C(N)=O)[C@@H](C)O)C(C)C)[C@@H](C)O [Example 25]
